In patent publication US12252524B2, “GIP/GLP1 co-agonist compounds” (Eli Lilly and Company, priority 2018, dated 2025):
Numbered stars: 1 amine (or outer) side, 2 acyl side, 3 side chain; on linkers, the order of the positions; unused ones are H or OH. Square brackets hold non-standard residues; d marks the D form. Side chains are listed from the residue outwards. Peptide text beside a SMILES is read from it. * marks the point of attachment. C20 diacid = O=C(O)CCCCCCCCCCCCCCCCCCC(=O)*; γGlu = O=C(O)[C@H](CCC(=O)[*:2])N[*:1]; αMeY = C[C@](N)(Cc1ccc(O)cc1)C(=O)O; αMeL = CC(C)C[C@](C)(N)C(=O)O; Orn = NCCC[C@H](N)C(=O)O; AEEA = NCCOCCOCC(=O)O; Aib = CC(C)(N)C(=O)O

Legend:
[1] = molecular target: T1, human Gcg receptor (Homo sapiens, UniProt P47871); test: [125I]-Glucagon binding (SPA), human Gcg receptor; conditions: read-out: hGLcgR Ki, nM (SEM, n)
T1 construct: expressed in transfected cells; crude membranes
T1 sequence (P47871 26-477): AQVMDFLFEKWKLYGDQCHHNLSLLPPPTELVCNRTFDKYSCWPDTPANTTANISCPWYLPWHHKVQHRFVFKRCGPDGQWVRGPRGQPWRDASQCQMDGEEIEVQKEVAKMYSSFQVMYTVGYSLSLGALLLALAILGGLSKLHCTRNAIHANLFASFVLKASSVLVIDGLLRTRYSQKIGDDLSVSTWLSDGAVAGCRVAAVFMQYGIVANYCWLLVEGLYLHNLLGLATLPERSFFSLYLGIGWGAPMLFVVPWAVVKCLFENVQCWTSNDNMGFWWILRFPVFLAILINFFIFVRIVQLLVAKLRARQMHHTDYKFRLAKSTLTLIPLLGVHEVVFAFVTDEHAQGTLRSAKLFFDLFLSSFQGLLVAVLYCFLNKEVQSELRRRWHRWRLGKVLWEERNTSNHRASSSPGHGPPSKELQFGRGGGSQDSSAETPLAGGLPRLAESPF
Outline: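 Scintillation counts are taken after membranes and WGA beads incubate and settle for 12 hours at room temperature. Buffer is 25 mM HEPES, pH 7.4, with CaCl2, MgCl2, bacitracin and Tween-20. Ki values, from four-parameter IC50 fits, are geometric means over independent days.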

[2] = molecular target: T2, human GIP receptor (Homo sapiens, UniProt P48546); test: [125I]-GIP binding (SPA), human GIP receptor; conditions: read-out: hGIPR Ki, nM (SEM, n)
T2 construct: expressed in transfected cells; crude membranes
T2 sequence (P48546 22-466): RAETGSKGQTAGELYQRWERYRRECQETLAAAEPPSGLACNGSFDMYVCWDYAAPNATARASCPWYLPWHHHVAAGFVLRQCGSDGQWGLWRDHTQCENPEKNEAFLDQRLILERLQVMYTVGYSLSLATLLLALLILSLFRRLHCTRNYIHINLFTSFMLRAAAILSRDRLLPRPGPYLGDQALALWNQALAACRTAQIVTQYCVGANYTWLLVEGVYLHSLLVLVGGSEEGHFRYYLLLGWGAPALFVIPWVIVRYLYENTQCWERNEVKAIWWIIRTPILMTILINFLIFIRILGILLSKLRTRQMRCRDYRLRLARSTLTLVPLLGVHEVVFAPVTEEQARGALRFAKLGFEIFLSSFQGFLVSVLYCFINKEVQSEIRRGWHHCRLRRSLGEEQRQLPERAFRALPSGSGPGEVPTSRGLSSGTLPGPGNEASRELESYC

[3] = molecular target: human GLP-1 receptor (GLP-1R) (Homo sapiens, UniProt P43220); test: cAMP pharmacological functional assay in presence of casein, hGLP-1R; format: cell-based; conditions: HEK293 cells expressing hGLP-1R, 0.1% Casein, geometric mean; read-out: hGLP1R cAMP Rel EC50 nM (SEM, n)
human GLP-1 receptor (GLP-1R), sequence (P43220 24-463): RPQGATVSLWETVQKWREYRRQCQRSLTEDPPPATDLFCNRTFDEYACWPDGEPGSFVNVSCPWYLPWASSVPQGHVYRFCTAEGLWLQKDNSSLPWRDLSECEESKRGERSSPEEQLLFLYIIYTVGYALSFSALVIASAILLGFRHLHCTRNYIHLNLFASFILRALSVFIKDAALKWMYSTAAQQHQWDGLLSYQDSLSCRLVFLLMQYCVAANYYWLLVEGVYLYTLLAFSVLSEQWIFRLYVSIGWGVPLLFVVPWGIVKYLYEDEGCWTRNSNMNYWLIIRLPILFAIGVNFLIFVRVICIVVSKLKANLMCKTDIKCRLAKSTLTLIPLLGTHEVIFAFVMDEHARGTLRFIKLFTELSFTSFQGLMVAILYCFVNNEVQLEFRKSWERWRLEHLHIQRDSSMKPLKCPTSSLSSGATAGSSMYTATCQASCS

[4] = molecular target: T3, gastric inhibitory peptide receptor (GIPR) (Homo sapiens, UniProt P48546); test: cAMP pharmacological functional assay in presence of casein, hGIPR; format: cell-based; conditions: HEK293 cells expressing hGIPR, 0.1% Casein, geometric mean; read-out: hGIPR cAMP Rel EC50 nM (SEM, n)
T3 sequence (P48546 22-466): T2 sequence (P48546 22-466)

[5] = molecular target: T4, human GLP-1R (Homo sapiens, UniProt P43220); test: [125I]-GLP-1 binding (SPA), human GLP-1 receptor; parameters: expressed in transfected cells; crude membranes; conditions: read-out: hGLP1R Ki, (nM) (SEM, n)
T4 sequence (P43220 24-463): as above
Outline: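 Frozen cell pellets are lysed on ice in hypotonic Tris buffer, pH 7.5, homogenized, and centrifuged to a membrane pellet resuspended at about 1 to 3 mg/mL. Binding is then measured in HEPES-based buffer at pH 7.4, and curves are fitted to give IC50 and Ki.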

[6] = molecular target: T4, human GLP-1R; test: GLP-1R CHO cell β-arrestin recruitment assay; format: cell-based; parameters: host or cells: CHO-K1 PathHunter cells, assay-ready frozen; conditions: for EC50: CHO-K1 cells; for hGLP1R B-Arrestin2 % Top: normalized to GLP-1 maximum control
Outline: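 Peptide-induced β-arrestin-2 recruitment measured by enzyme-fragment complementation luminescence after 90 min at 37 °C plus 60 min detection at RT.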

[7] = molecular target: T4, human GLP-1R; test: GLP-1R HEK293 cell membrane [35S]GTPγS binding assay; format: biochemical; parameters: expressed in transfected cells; host or cells: HEK293 cells expressing human GLP-1R; membranes; conditions: HEK293 cell membranes expressing human GLP-1R, [35S]GTPγS binding; read-out: hGLP1R GTPgS Rel EC50 nM (SEM, n)
Outline: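 Agonist-driven Gαs activation read as [35S]GTPγS ([…]) binding to receptor-expressing HEK293 membranes, 30 min at room temperature, pH 7.4. Detection by anti-Gαs immunocapture on scintillation beads; EC50 derived from four-parameter logistic concentration-response fit.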

[8] = PathHunter β-arrestin-2 recruitment, 0.1% casein, read-out: hGLP1R B-Arrestin2 Rel EC50 uM (SEM, n)

SMILES	Ki [1] [nM]	Ki [2] [nM]	EC50 [3] [nM]	EC50 [4] [nM]	Ki [5] [nM]	EC50 [6, 8] [µM]	hGLP1R B-Arrestin2 % Top [6] [%]	EC50 [7] [nM]	EC50 ([6]; 0.1% w/v hydrolyzed Casein, read-out: hGLP1R B-Arrestin2 Rel EC50) [µM]
CC[C@H](C)[C@H](NC(=O)[C@H](CC(C)C)NC(=O)[C@H](Cc1ccc(O)cc1)NC(=O)[C@H](CCC(=O)O)NC(=O)[C@@H](NC(=O)[C@H](Cc1ccccc1)NC(=O)[C@H](CCC(=O)O)NC(=O)C(C)(C)NC(=O)[C@H](CCC(N)=O)NC(=O)[C@H](C)NC(=O)[C@H](CCCCNC(=O)COCCOCCNC(=O)COCCOCCNC(=O)CC[C@H](NC(=O)CCCCCCCCCCCCCCCCCCC(=O)O)C(=O)O)NC(=O)[C@H](CCCCN)NC(=O)[C@H](CC(=O)O)NC(=O)[C@H](CC(C)C)NC(=O)[C@](C)(CC(C)C)NC(=O)[C@@H](NC(=O)[C@H](CO)NC(=O)[C@H](Cc1ccc(O)cc1)NC(=O)[C@H](CC(=O)O)NC(=O)[C@H](CO)NC(=O)[C@@H](NC(=O)[C@H](Cc1ccccc1)NC(=O)[C@@H](NC(=O)CNC(=O)[C@H](CCC(=O)O)NC(=O)C(C)(C)NC(=O)[C@H](N)Cc1ccc(O)cc1)[C@@H](C)O)[C@@H](C)O)[C@@H](C)CC)[C@@H](C)CC)C(=O)N[C@@H](C)C(=O)NCC(=O)NCC(=O)N1CCC[C@H]1C(=O)N[C@@H](CO)C(=O)N[C@@H](CO)C(=O)NCC(=O)N[C@@H](C)C(=O)N1CCC[C@H]1C(=O)N1CCC[C@H]1C(=O)N1CCC[C@H]1C(=O)N[C@@H](CO)C(N)=O [Example 290] (H-[dY][Aib]EGTFTSDYSI[αMeL]LDKK([AEEA-AEEA-γGlu-C20 diacid])AQ[Aib]EFIEYLIAGGPSSGAPPPS-NH2)	308	0.0617	0.179	0.0629	2.44	0.0238	20.0	0.466	
CC[C@H](C)[C@H](NC(=O)[C@H](CC(C)C)NC(=O)[C@H](Cc1ccc(O)cc1)NC(=O)[C@@H](CCC(=O)O)NC(=O)[C@@H](NC(=O)[C@H](Cc1ccccc1)NC(=O)[C@H](C)NC(=O)C(C)(C)NC(=O)[C@H](CCC(N)=O)NC(=O)[C@H](C)NC(=O)[C@H](CCCCNC(=O)COCCOCCNC(=O)COCCOCCNC(=O)CC[C@H](NC(=O)CCCCCCCCCCCCCCCCCCC(=O)O)C(=O)O)NC(=O)[C@H](CCCN)NC(=O)[C@H](CC(=O)O)NC(=O)[C@H](CC(C)C)NC(=O)[C@](C)(CC(C)C)NC(=O)[C@@H](NC(=O)[C@H](CO)NC(=O)[C@H](Cc1ccc(O)cc1)NC(=O)[C@H](CC(=O)O)NC(=O)[C@H](CO)NC(=O)[C@@H](NC(=O)[C@H](Cc1ccccc1)NC(=O)[C@@H](NC(=O)CNC(=O)[C@H](CCC(=O)O)NC(=O)C(C)(C)NC(=O)[C@H](N)Cc1ccc(O)cc1)[C@@H](C)O)[C@@H](C)O)[C@@H](C)CC)[C@@H](C)CC)C(=O)N[C@@H](C)C(=O)NCC(=O)NCC(=O)N1CCC[C@H]1C(=O)N[C@@H](CO)C(=O)N[C@@H](CO)C(=O)NCC(=O)N[C@@H](C)C(=O)N1CCC[C@H]1C(=O)N1CCC[C@H]1C(=O)N1CCC[C@H]1C(=O)N[C@@H](CO)C(N)=O [Example 291] (H-[dY][Aib]EGTFTSDYSI[αMeL]LD[Orn]K([AEEA-AEEA-γGlu-C20 diacid])AQ[Aib]AFI[dE]YLIAGGPSSGAPPPS-NH2)	> 872	0.129	0.15	0.118	3.16	> 10		0.466	> 10
CC[C@H](C)[C@H](NC(=O)[C@H](CC(C)C)NC(=O)[C@](C)(Cc1ccc(O)cc1)NC(=O)[C@H](CCC(=O)O)NC(=O)[C@@H](NC(=O)[C@H](Cc1ccccc1)NC(=O)[C@H](CCC(=O)O)NC(=O)C(C)(C)NC(=O)[C@H](CCC(N)=O)NC(=O)[C@H](C)NC(=O)[C@H](CCCCNC(=O)COCCOCCNC(=O)COCCOCCNC(=O)CC[C@H](NC(=O)CCCCCCCCCCCCCCCCCCC(=O)O)C(=O)O)NC(=O)[C@H](CCCCN)NC(=O)[C@H](CC(=O)O)NC(=O)[C@H](CC(C)C)NC(=O)[C@](C)(CC(C)C)NC(=O)[C@@H](NC(=O)[C@H](CO)NC(=O)[C@H](Cc1ccc(O)cc1)NC(=O)[C@H](CC(=O)O)NC(=O)[C@H](CO)NC(=O)[C@@H](NC(=O)[C@H](Cc1ccccc1)NC(=O)[C@@H](NC(=O)CNC(=O)[C@H](CCC(=O)O)NC(=O)C(C)(C)NC(=O)[C@H](N)Cc1ccc(O)cc1)[C@@H](C)O)[C@@H](C)O)[C@@H](C)CC)[C@@H](C)CC)C(=O)N[C@@H](C)C(=O)NCC(=O)NCC(=O)N1CCC[C@H]1C(=O)N[C@@H](CO)C(=O)N[C@@H](CO)C(=O)NCC(=O)N[C@@H](C)C(=O)N1CCC[C@H]1C(=O)N1CCC[C@H]1C(=O)N1CCC[C@H]1C(=O)N[C@@H](CO)C(N)=O [Example 292] (H-[dY][Aib]EGTFTSDYSI[αMeL]LDKK([AEEA-AEEA-γGlu-C20 diacid])AQ[Aib]EFIE[αMeY]LIAGGPSSGAPPPS-NH2; N-terminus assumed)	595	0.0547	0.183	0.0682	1.19	0.00774	29.0	0.429	
CC[C@H](C)[C@H](NC(=O)[C@H](CC(C)C)NC(=O)[C@](C)(Cc1ccc(O)cc1)NC(=O)[C@H](CCC(=O)O)NC(=O)[C@@H](NC(=O)[C@H](Cc1ccccc1)NC(=O)[C@H](CCC(=O)O)NC(=O)C(C)(C)NC(=O)[C@H](CCC(N)=O)NC(=O)[C@H](C)NC(=O)[C@H](CCCCNC(=O)COCCOCCNC(=O)COCCOCCNC(=O)CC[C@H](NC(=O)CCCCCCCCCCCCCCCCCCC(=O)O)C(=O)O)NC(=O)[C@H](CCCN)NC(=O)[C@H](CC(=O)O)NC(=O)[C@H](CC(C)C)NC(=O)[C@](C)(CC(C)C)NC(=O)[C@@H](NC(=O)[C@H](CO)NC(=O)[C@H](Cc1ccc(O)cc1)NC(=O)[C@H](CC(=O)O)NC(=O)[C@H](CO)NC(=O)[C@@H](NC(=O)[C@H](Cc1ccccc1)NC(=O)[C@@H](NC(=O)CNC(=O)[C@H](CCC(=O)O)NC(=O)C(C)(C)NC(=O)[C@H](N)Cc1ccc(O)cc1)[C@@H](C)O)[C@@H](C)O)[C@@H](C)CC)[C@@H](C)CC)C(=O)N[C@@H](C)C(=O)NCC(=O)NCC(=O)N1CCC[C@H]1C(=O)N[C@@H](CO)C(=O)N[C@@H](CO)C(=O)NCC(=O)N[C@@H](C)C(=O)N1CCC[C@H]1C(=O)N1CCC[C@H]1C(=O)N1CCC[C@H]1C(=O)N[C@@H](CO)C(N)=O [Example 293]	668	0.0775	0.132	0.0562	1.64	0.00719	29.5	0.368	
